Data set [1] concerns 4T1 Luc2 cell line. As to the kind of experiment: Intracellular uptake by flow cytometry in 4T1 Luc2 cells. The format is cell-based, mouse. The conditions noted are these: flow cytometry of 4T1 cells. On the procedure:
In this experiment, 4T1 Luc2 cell line (ATCC, USA) was used and the cells were cultured using the same method described in 3-1-1.
The medium was replaced with RPMI medium containing 5% FBS and treated with drugs for additional 2, 4, 6, 24 hours, and then DAPI staining was performed after the reaction was completed. The finished samples were compared using a flow cytometer (Beckman Coulter CytoFlex (3 lasers)) to measure the degree of fluorescence expression against the control cell line.
A general note: In flow cytometry, cells or beads pass a laser one at a time.

For data set [2], the system named is 4T1-Luc2 triple-negative breast cancer orthotopic tumor resection model. As to the kind of experiment: Antitumor efficacy via intraperitoneal injection in TNBC orthotopic animal model (tumor resection model). The format is in vivo, female Balb/c mice.
Data set [3] has as its system TNBC metastasis after surgical resection. The conditions noted are these: after 50 days post-insertion of the drug/hydrogel patch at the resection site; mice; cited from earlier work.

These results are taken from patent US20250367301A1, “PHARMACEUTICAL COMPOSITION FOR PREVENTING OR TREATING TRIPLE-NEGATIVE BREAST CANCER, COMPRISING OLIGONUCLEOTIDE AS ACTIVE INGREDIENT” (INTEROLIGO CORPORATION, priority 2021, published 2025).

As to “Cy5-(Gem)(Gem)[TGG]4[TTG][TGG]5 [Cy5-labeled IO101L]”, the “Cy5-labeled IO101L found to enter the cells” value in data set [1] (after 24 hours) is “over 80%”.
As for “(Gem)2-[TGG]4[TTG][TGG]5 (NNTGGTGGTGGTGGTTGTGGTGGTGGTGGTGG; two 5' gemcitabine; modified_base 1 OTHER; 2', 2'-difluoro deoxycytidine; modified_base 2 OTHER) [IO101L, modified oligonucleotide, two gemcitabine at the 5′ end]”, the “mice with confirmed lung metastasis” value in data set [2] (2 mg intraperitoneal every other day, 10 times, after tumor resection) is given as 3 out of 7. The “inhibition of cancer metastasis compared to positive control gemcitabine” value in data set [2] (intraperitoneal, post-TNBC tumor resection) is given as “significantly inhibited cancer metastasis”. In addition, the “mice surviving until day 76” value in data set [2] (mouse, in vivo, ip) is reported as 4 out of 7. In addition, the “intracellular influx compared with the IO101L-control group” value in data set [1] (FIG. 4) is recorded as “significantly superior”.
With `Nc1ccn([C@@H]2O[C@H](CO)[C@@H](O)C2(F)F)c(=O)n1` [gemcitabine, 2′,2′-difluorodeoxycytidine, reference compound], the “time within which all mice died (lung metastasis)” value in data set [2] (1 mg intraperitoneal every other day, 10 times, after tumor resection, 5 mice) was at most 30 days.
On to `Nc1ncnc2c1ncn2C1O[C@@H]2CO[P@@](=O)([S-])O[C@H]3[C@@H](O)[C@H](n4cnc5c(N)ncnc54)O[C@@H]3CO[P@@](=O)([S-])O[C@@H]1[C@@H]2O.[Na+].[Na+]` (stereo partly shown) [STING-RR], for which the survival rate in data set [3] is 60%.
